Results: PMC7714403 (JCI Insight, 2020)
Like-named read-outs stand apart in the source and are kept apart here.

Assays:
[1] = test system: Ba/F3 cells expressing FLT3 ITD/D835H; assay: MTT viability assay; format: cell-based; settings: Mus musculus, read-out: IC50 viability
Procedure: (§1) Drug treatments were carried out for 72 hours. Details are provided in the Supplemental Methods.

[2] = test system: Ba/F3 cells expressing FLT3-ITD; assay: MTT viability assay; format: cell-based; settings: Mus musculus, read-out: IC50 viability
Procedure: as §1

[3] = test system: Ba/F3 cells expressing FLT3 ITD/D835Y; assay: MTT viability assay; format: cell-based; settings: Mus musculus, read-out: IC50 viability
Procedure: as §1

[4] = test system: Ba/F3 cells expressing FLT3 D835H; assay: MTT viability assay; format: cell-based; settings: Mus musculus, read-out: IC50 viability
Procedure: as §1

Ba/F3 cells GFP+IL3 = assay: MTT viability assay; format: cell-based; settings: Mus musculus, read-out: IC50 viability
Procedure: as §1

[5] = test system: Ba/F3 cells expressing FLT3-ITD/F691L; assay: MTT viability assay; format: cell-based; settings: Mus musculus, BaF3, 72 hours
Procedure: as §1

[6] = test system: Ba/F3 cells expressing FLT3 D835Y; assay: MTT viability assay; format: cell-based; settings: Mus musculus, read-out: IC50 viability
Procedure: as §1

[7] = test system: primary FLT3-ITD/IDH2-R140Q murine leukemia cells; assay: CellTiterGlo viability assay, ex vivo; format: cell-based; settings: Mus musculus, 72 hours
Procedure: as §1
(§2) Cell viability of primary samples […]
(§3) For murine or human primary AML cells, 100,000 cells/well were plated in a 96-well plate and treated with increasing concentrations of drug. Cell viability, via trypan blue, was measured every 24 hours. If the viability fell below 50% or at 72 hours of treatment, whichever came earlier, cell viability of each plate was measured via

MV4-11 cells [8] = assay: MTT viability assay; format: cell-based; settings: Homo sapiens, read-out: IC50 viability
Procedure: as §1

MOLM13-RES cells = assay: MTT viability assay; format: cell-based; settings: Homo sapiens, read-out: IC50 viability
Procedure: as §1

MOLM13 cells [9] = assay: MTT viability assay; format: cell-based; settings: Homo sapiens, read-out: IC50 viability
Procedure: as §1

MOLM13 cells [10] = assay: MOLM13 viability ± coculture with HS5-GFP MSCs (MTT); format: cell-based; settings: Homo sapiens
Procedure: Drug treatments were carried out for 72 hours. Details are provided in the Supplemental Methods. […]
HS5-GFP human bone marrow stromal cells were plated and cultured for 72 hours to near confluence.
MOLM13 cells were then seeded onto HS5-GFP cells to establish a co-culture. Twenty-four hours later, cells
were treated with increasing concentrations of drug for an additional 72 hours. MOLM13 and HS5-GFP cells
were then separated and MTT assay s were performed for cell viability assessment of each cell population. […]

[11] = test system: human primary AML samples; assay: CellTiterGlo viability assay, ex vivo; format: cell-based
Procedure: as §1, §2
as §3, with “measured via CellTiter-Glo. Primary human AML cells were obtained from the OSUCCC Leukemia Tissue Bank Shared […]” for “measured via”
Primary AML samples were analyzed by targeted gene sequencing of 80 genes, as previously described (1). Samples were pooled and analyzed on a MiSeq system using the Illuminia MiSeq Reagent Kit v3. Ill umina Isis Banded Smith Waterman aligner and hg19 genome were used to align the sequences. Single nucleotide variant (SNV) and indel calling were performed using MuTect and Varscan2. A variant allele fraction (VAF) cut-off of 0.10 was set for reporting mutations. SNV that are reported as pathogenic SNP were considered mutations.
All other SNV needed to be absent from 1000 Genome database, dsSNP137 or dsSNP142. Visual inspection of all variants was carried out using Integrative Genomics Viewer (Broad Institute) . […]

MV4-11 cells [12] = assay: CFU assay with IL-3, GM-CSF or FGF2; format: cell-based, human; settings: 7-day MV4-11 CFU assay
Procedure: For human primary CFU assays, cells were cultured in MethoCult H4035 Optimum without EPO (Stemcell Technologies). For mouse primary CFU assays, cells were directly cultured in MethoCult M3231 (Stemcell Technologies) supplemented with 45 ng/mL of murine IL-6 (mIL-6), mIL-3, and mSCF. Both human and mouse primary cells 10,000 cells were plated in duplicate for each drug concentration. For cell line CFU assays, MV4-11 cells were treated with drugs in the presence of 20 ng/mL IL-3, GM-CSF, or FGF2. Cells were plated in MethoCult H4230 (Stemcell Technologies) in duplicates at 250 cells/plate. Plates were placed in a 37°C incubator for 7 or 14 days for human cell lines and for mouse or human primary cells, respectively. Colonies were identified as clusters containing 40 or more cells. For CFU assays using human primary CD34^+ cells, umbilical cord blood was obtained from the OSU Comprehensive Cancer Center (CCC) Leukemia Tissue Bank Shared Resource, and mononuclear cells were isolated by using density gradient centrifugation. CD34^+ cells were purified using the CD34 UltraPure MicroBead Kit (Miltenyi Biotec) according to the manufacturer’s instructions. CFU assay with CD34^+ cells was performed as described above, and the total number of colonies were counted after 7–10 days.

MOLM13 cells [13] = assay: MOLM13 viability ± cytokines (MTT); settings: Homo sapiens
Procedure: Drug treatment effects on cell lines were assessed by MTT assay (Roche Diagnostics), as previously described ([21]). […] Drug treatments were carried out for 72 hours.

[14] = BaF3, Ba/F3 FLT3 ITD/D835H, MTT, 72 hours
[15] = BaF3, Ba/F3 FLT3 ITD, MTT, 72 hours
[16] = BaF3, Ba/F3 FLT3 ITD/D835Y, MTT, 72 hours
[17] = BaF3, Ba/F3 FLT3 D835H, MTT, 72 hours
[18] = BaF3, Ba/F3 GFP+IL3, MTT, 72 hours
[19] = MV4-11, FLT3-ITD, MTT, 72 hours
[20] = MOLM13-RES, FLT3-ITD/D835Y, MTT, 72 hours
[21] = BaF3, Ba/F3 FLT3 D835Y, MTT, 72 hours
[22] = MOLM-13, MOLM13, FLT3-ITD, MTT, 72 hours
[23] = MOLM-13, MOLM13 + HS5-GFP co-culture, read-out: IC50 viability
[24] = MOLM-13, MOLM13 alone (co-culture experiment), read-out: IC50 viability
[25] = sample 240: FLT3-ITD, IDH2, NPM1, read-out: IC50 viability
[26] = sample 370: FLT3-ITD, IDH1, NPM1, SMARCA2, read-out: IC50 viability
[27] = sample 0762 (762): FLT3-ITD, NRAS, KRAS, DNMT3A, NPM1, D835E, read-out: IC50 viability
[28] = sample 1069: FLT3-ITD, SRSF2, IDH2, DNMT3A, read-out: IC50 viability
[29] = sample 1355: FLT3-ITD, NPM1, IDH2, read-out: IC50 viability

Cc1ccc(C(=O)Nc2ccc(CN3CCN(C)CC3)c(C(F)(F)F)c2)cc1C#Cc1cnc2cccnn12 [Ponatinib, ponatinib] gave an IC50 ([1]; BaF3, 72 h) of 126 nM, an IC50 ([2]; BaF3, 72 h) of 2.8 nM and an IC50 ([3]; BaF3, 72 h) of 106 nM. It also gave an IC50 ([4]; BaF3, 72 h) of 89 nM, an IC50 (Ba/F3 cells GFP+IL3; BaF3, 72 h) of 920 nM and an IC50 [5] of 41.9 nM. It also gave an IC50 ([6]; BaF3, 72 h) of 158 nM.

CNC(=O)c1cc(Oc2ccc(NC(=O)Nc3ccc(Cl)c(C(F)(F)F)c3)cc2)ccn1 [Sorafenib, sorafenib] was tested, and the IC50 [7] was greater than 10000 nM, the IC50 [1, 14] was 463 nM and the IC50 [2, 15] was 1.4 nM. For the same compound, the IC50 [3, 16] was 3340 nM, the IC50 [4, 17] was 76 nM and the IC50 (Ba/F3 cells GFP+IL3; [18]) was 3850 nM. It also gave an IC50 (MV4-11 cells [8]; [19]) of 8 nM, an IC50 (MOLM13-RES cells; [20]) of 1790 nM and an IC50 [5] of 1340 nM. The IC50 [6, 21] was 233 nM, the IC50 (MOLM13 cells [9]; [22]) was 26 nM and the IC50 (MOLM13 cells [10]; [23]) was 70 nM. For the same compound, the IC50 (MOLM13 cells [10]; [24]) was 14 nM, the IC50 [11, 25] was 1480 nM and the IC50 [11, 26] was 1030 nM. The IC50 [11, 27] was 195 nM, the IC50 ([11]; sample 774: FLT3-ITD, CBL, IDH1, NPM1, read-out: IC50 viability) was 659 nM and the IC50 [11, 28] was 357 nM. The IC50 [11, 29] was 3530 nM.

CC(C)(C)c1cc(NC(=O)Nc2ccc(-c3cn4c(n3)sc3cc(OCCN5CCOCC5)ccc34)cc2)no1 [Quizartinib, quizartinib] showed an IC50 (Ba/F3 cells GFP+IL3; BaF3, 72 h) greater than 10000 nM, an IC50 (MV4-11 cells [8]; MV4-11, 72 h) of 1.7 nM and an IC50 (MOLM13-RES cells; 72 h) of 400 nM. It also gave an IC50 (MOLM13 cells [9]; MOLM-13, 72 h) of 2.5 nM, an IC50 (MOLM13 cells [10]; MOLM-13, read-out: IC50 viability, MOLM13 + HS5-GFP co-culture) of 4.7 nM and an IC50 ([11]; read-out: IC50 viability, sample 240: FLT3-ITD, IDH2, NPM1) of 238 nM. The IC50 ([11]; read-out: IC50 viability, sample 370: FLT3-ITD, IDH1, NPM1, SMARCA2) was 375 nM, the IC50 ([11]; read-out: IC50 viability, sample 0762 (762): FLT3-ITD, NRAS, KRAS, DNMT3A, NPM1, D835E) was 357 nM and the IC50 ([11]; read-out: IC50 viability, sample 1069: FLT3-ITD, SRSF2, IDH2, DNMT3A) was 195 nM. For the same compound, the IC50 ([11]; read-out: IC50 viability, sample 1355: FLT3-ITD, NPM1, IDH2) was 400 nM.

Compound CC1(COc2ccc3c(c2)ncn3-c2ccc3cccc(N4CCC(N)CC4)c3n2)COC1 [Crenolanib, crenolanib] has an IC50 [7] of 3100 nM, an IC50 [1, 14] of 38 nM and an IC50 [2, 15] of 1.8 nM. The IC50 [3, 16] was 35 nM, the IC50 [4, 17] was 0.27 nM and the IC50 (Ba/F3 cells GFP+IL3; [18]) was 773 nM. It also gave an IC50 (MV4-11 cells [8]; [19]) of 6.6 nM, an IC50 (MOLM13-RES cells; [20]) of 11 nM and an IC50 [5] of 58 nM. It also gave an IC50 [6, 21] of 0.068 nM, an IC50 (MOLM13 cells [9]; [22]) of 7.4 nM and an IC50 (MOLM13 cells [10]; [23]) of 20 nM. The IC50 (MOLM13 cells [10]; [24]) was 5 nM, the IC50 [11, 25] was 90 nM and the IC50 [11, 26] was 192 nM. For the same compound, the IC50 [11, 27] was 547 nM, the IC50 [11, 28] was 488 nM and the IC50 [11, 29] was 305 nM.

For CO[C@@H]1[C@H](N(C)C(=O)c2ccccc2)C[C@H]2O[C@]1(C)n1c3ccccc3c3c4c(c5c6ccccc6n2c5c31)C(=O)NC4 [Midostaurin, midostaurin], the “Colony formation with IL-3, GM-CSF, or FGF2” value (MV4-11 cells [12]) was “fully or partially rescued”, the IC50 [1, 14] was 28 nM and the IC50 (Ba/F3 cells GFP+IL3; [18]) was 328 nM. The IC50 (MOLM13 cells [10]; [23]) was 99 nM, the IC50 ([11]; sample 036: FLT3 wild-type, NRAS, IDH2, NPM1, DNMT3A, read-out: IC50 viability) was 334 nM and the IC50 (MOLM13 cells [13]; MOLM-13, read-out: IC50 viability, MOLM13 + GM-CSF) was 47.4 nM. The IC50 (MOLM13 cells [13]; MOLM-13, read-out: IC50 viability, MOLM13, no cytokine) was 18.9 nM.
